pIC50, pKi: −log10 of the molar value. Like-named read-outs stand apart in the source and are kept apart here.
How the values were obtained:
[1] = molecular target: T1, N. fowleri Nfa-1 hemerythrin (Naegleria fowleri, UniProt Q9NH76); assay: biochemical
T1 construct: made in house; host or cells: E. coli
Excerpt: (§1) The N. fowleri Nfa-1 gene (360 bp, GenBank Accession No. AF230370) was amplified by PCR from genomic N. fowleri DNA using PCR primers that included the Nde1 and Sap1 restriction enzyme sites for subsequent cloning into the Nde1 and Sap1 sites of the bacterial expression vector pTwin1 (forward primer with Nde1 site underlined; ATG start codon is indicated in bold: SEQ ID NO: 1 5′-[…]-3′, reverse primer with Sap1 site underlined: SEQ ID NO: 2 5′-[…]-3′), which contained a thiol-inducible intein protease fused to a chitin-binding domain. Recombinant Nfa-1 protein was produced in E. coli and purified by chitin-agarose chromatography followed by cleavage and elution of the purified Nfa-1 protein by 40 mM dithiothreitol (DTT) and subsequent size-exclusion chromatography purification.
(§2) Enzymatic oxidase activity, kinetics and pharmacological drug inhibition assays of recombinant N. fowleri Nfa-1 hemerythrin were determined in vitro using NADH or NADPH as the substrate and electron donor and ferricyanide as electron acceptor. Various drugs and inhibitors specific for xanthine oxidase-like enzymes, NAD(P)H oxidases, or NADH peroxidase were included in the pharmacological inhibition assays.

[2] = tested on: Naegleria fowleri strain Nf69 (ATCC 30215); assay: LDH cytotoxicity assay of N. fowleri amoebae co-cultured with CHO cells; details: ATCC30215, CHO, 13 h, read-out: IC50, protection from N. fowleri cytotoxicity
Method: Naegleria fowleri strain Nf69 (ATCC 30215) was cultivated at about 33° C. in modified Nelson's medium (about 1 mM Na2HPO4, about 1 mM KH2PO4, about 2.05 mM NaCl, about 16.2 μM MgSO4, about 27.2 μM CaCl2), about 0.17 g/L DIFCO Liver infusion broth, about 9.4 mM glucose) supplemented with about 10% heat-inactivated fetal bovine serum. For cytotoxicity assays, Chinese hamster ovary (CHO) cells were grown at about 37° C. in DMEM medium supplemented with about 10% fetal bovine serum until cultures reached about 70-80% confluency. Subsequently cultures were infected with N. fowleri cells at a ratio of 1 N. fowleri amoeba per 5-10 CHO cells and co-cultivated overnight for about 13 hours at about 37° C. The cytotoxicity effect of N. fowleri amoebae on CHO cells was measured by an LDH-based cytotoxicity assay that quantifies the release of lactate dehydrogenase (LDH) from dead cells at 490 nm wavelength absorbance for calculation of amoeba-induced cytotoxicity to the mammalian host cells.
Cytotoxicity of Naegleria fowleri amoebae was measured with CHO cells co-cultured with N. fowleri for about 13 hours at about 37° C. using the LDH cytotoxicity assay (infection ratio of 1 amoeba cell per 5-10 CHO cells) as described above.

[3] = tested on: Acanthamoeba castellani (ATCC strain 50370); assay: microbe, parasite or virus in culture; details: Acanthamoeba castellanii, ATCC50370, CHO, 19 h, read-out: IC50, protection against A. castellani cytotoxicity
[4] = molecular target: T1, N. fowleri Nfa-1 hemerythrin; assay: Initial-rate enzyme kinetics of Nfa-1 hemerythrin using NADH or NADPH as substrates; assay type: biochemical; details: substrate 10-200 μM, ferricyanide 200 μM, 40 sec at 23° C., Michaelis-Menten analysis; for Km: read-out: apparent Km
Excerpt: as §1, §2
Enzyme kinetics were determined using NADH or NADPH at 10-200 μM concentration as electron donor and ferricyanide (200 μM) as electron acceptor for initial-rate enzyme kinetics of 40 sec at 23° C.

[5] = recombinant N. fowleri Nfa-1 oxidase in vitro, read-out: Ki, inhibition of Nfa-1 enzyme activity

T1 sequence (Q9NH76 whole entry): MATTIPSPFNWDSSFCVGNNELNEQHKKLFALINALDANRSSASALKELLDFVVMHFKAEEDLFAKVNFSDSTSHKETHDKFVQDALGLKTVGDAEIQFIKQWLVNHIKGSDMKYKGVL

SMILES | pKi [1, 5] | pIC50 [2] | pKi [1] | also measured
O=[N+]([O-])[O-].[Ag+] [AgNO3] | 3.46 |  |  | 
Oc1ncnc2[nH]ncc12 [Allopurinol] | 3.87 | 4.32 |  | pIC50 [3]: 3.21
COc1cc(C(C)=O)ccc1O [Apocynin] | 4.77 | 4.82 |  | pIC50 [3]: 3.76
c1ccc2c(c1)[I+]c1ccccc1-2 [DPI, diphenyleneiodonium chloride] |  | 4.31 | 4.72 | 
OO [Formula H2O2, H2O2] |  |  |  | stimulation of Nfa-1 enzyme activity ([1]; NADH peroxidase activator, FIG. 9): 9.7%
NC(=O)C1=CN([C@@H]2O[C@H](COP(=O)(O)OP(=O)(O)OC[C@H]3O[C@@H](n4cnc5c(N)ncnc54)[C@H](O)[C@@H]3O)[C@@H](O)[C@H]2O)C=CC1 [NADH] |  |  |  | apparent kat [4]: 4.4 s⁻¹; Km [4]: 64.5 µM
NC(=O)C1=CN([C@@H]2O[C@H](COP(=O)(O)OP(=O)(O)OC[C@H]3O[C@@H](n4cnc5c(N)ncnc54)[C@H](OP(=O)(O)O)[C@@H]3O)[C@@H](O)[C@H]2O)C=CC1 [NADPH] |  |  |  | apparent kat [4]: 3.3 s⁻¹; Km [4]: 22.3 µM
O=c1[nH]cnc2nc[nH]c12 [hypoxanthine] |  | 3.30 | 3.00 | 
O=C(O)c1cc[c]([Hg][OH])cc1 [pHMB, para-hydroxymercuribenzoate] |  |  | 4.11 | 

Source: patent US10668027B1, “Method of treating Acanthamoeba infection using allopurinol” (University of South Florida, priority 2014, dated 2020)
